Results taken from patent US20080280934A1, “Method of Preparing Porphyrin Derivatives, Porphyrin Derivatives, Uses Thereof and Pharmaceutical Compositions” (priority 2003, published 2008).

How the values were obtained:
[1] = maximum absorption wavelength (λmax); assay type: physicochemical; conditions: for maximum absorption wavelength: in both dichloromethane and methanol; for λmax / absorption maximum: solvent not stated
Procedure: Refluxing of pure 4a in trichloroacetic acid at 175° C. leads surprising to a new peri-annulated quinoporphyrin-product (5a). The oxidizing agent performing the final oxidation (closing the heterocyclic ring of the quinoline-ring system) to result in the new product is oxygen from the air, similar to what is known for other reactions involving porphyrins (see Woodward, J., Am.. Chem. Soc.. (1960) […]., pp. 3800-3802). The λmax of this new compound 5a is, compared with mesoporphyrindimethylester 1, shifted towards the red (respective values for λmax are: 567 nm and 638 nm).
If desired the metal ion used (here nickel) may be removed in a conventional manner (5 min. conc. sulphuric acid at room temperature, the time required to dissolve completely), yielding the corresponding compounds 6a-6d. Noteworthy are the maximum absorption wavelengths for 6a, 6b, 6c and 6d which are 681, 688, 688 and 683 nm respectively (in both dichloromethane and methanol),which are very long for entirely unsaturated porphyrin ring systems. Benzylation of the quinoline-ring system nitrogen with benzyl bromide/ potassium iodide leads to formation of a cationic benzylated quinoporphyrin (18 N-benzylquinolinium[4,4a,5,6-efg]-annulated mesoporphyrin dimethylester with an absorption maximum at 755 nm. Hydrolysation of this compound yields N-benzylquinolinium[4,4a,5,6-efg]-annulated mesoporphyrin (19).

[2] = solubility of the purified porphyrin in demineralized water; assay type: physicochemical; conditions: at about pH 8, demineralized water
Procedure: A solution of 0.61 gram of 6a in 25 ml tetrahydrofuran (THF) was mixed with a solution of 0.20 gram sodium hydroxide in 120 ml of water and refluxed during 1 hour. The reaction was followed with silicagel thin layer chromatography using THF as the eluens. When the reaction is finished THF and water were removed by distillation under reduced pressure until the volume was approximately 20 ml. The crude product was purified over 10 grams of CM Sephadex cation exchanger (bead size 40-120 μm) from Sigma-Aldrich, which was first treated with 1 M hydrochloric acid and then washed with demineralized water. First the porphyrin solution was carried onto the sephadex gel, and washed with demineralized water to remove salts. The purified porphyrin was eluted with 1% ammoniumhydroxide in water. The resulting brown solution was evaporated to dryness, then demineralized water was added and again the solution was evaporated to dryness to remove traces of ammonia. […] Yet this solubility of about 0.5 mg/ml at about pH 8 is better than for other porphyrin compounds such as MTHPC which is currently used in photodynamic therapy. 0.45 grams (77%) of the dicarboxylic acid 7a was obtained.

Row | Substance | maximum absorption wavelength [1] [nm] | λmax / absorption maximum [1] [nm] | other results
1 | 2′-methoxycarbonylquino[4,4a,5,6-jkl]-annulated 12-demethyl-13-de[2-(methoxycarbonyl)ethyl]mesoporphyrin dimethylester [6b] | 688 |  | 
2 | 2′-methoxycarbonylquino[4,4a,5,6-qrs]-annulated 18-demethyl-17-de[2-(methoxycarbonyl)ethyl]mesoporphyrin dimethylester [6c] | 688 |  | 
3 | N-benzylquinolinium[4,4a,5,6-efg]-annulated mesoporphyrin dimethylester [compound 18] |  | 755 | 
4 | mesoporphyrin dimethylester [compound 1, reference compound] |  | 567 | 
5 | quino[4,4a,5,6-abt]-annulated 2-demethyl-3-deethylmesoporphyrin dimethylester [6d] | 683 |  | 
6 | quino[4,4a,5,6-efg]-annulated 7-demethyl-8-deethylmesoporphyrin [7a] |  |  | solubility [2]: about 0.5 mg/ml
7 | quino[4,4a,5,6-efg]-annulated 7-demethyl-8-deethylmesoporphyrin dimethylester [6a] | 681 |  | 
8 | quino[4,4a,5,6-efg]-annulated 7-demethyl-8-deethylmesoporphyrin dimethylester nickel (II) complex [5a] |  | 638 | 
